Measurements taken from the NIST ThermoML archive (doi:10.1016/j.fluid.2017.06.026).
Numbers after ± are expanded uncertainties.

Conditions: 298.15 K, Ring tensiometer

| Compound | surface tension liquid-gas [mN/m] |
| --- | --- |
| CCCCCOP(=O)(OCCCCC)OCCCCC [tripentyl phosphate] | 26.2 ± 3 |
| O=P(OCC(F)(F)C(F)(F)C(F)(F)C(F)F)(OCC(F)(F)C(F)(F)C(F)(F)C(F)F)OCC(F)(F)C(F)(F)C(F)(F)C(F)F [tris (1H,1H,5H-octafluoropentyl) phosphate] | 22.9 ± 3 |
